The values below come from US9650361B2, “N-(pyridin-2-yl)pyrimidin-4-amine derivatives containing a sulfoximine group” (BAYER PHARAM AKTIENGESELLSCHAFT, priority 2012, dated 2017).

One assay deals with T1, CDK9/CycT1 (Homo sapiens, UniProt P50750).
T1 construct: Recombinant full-length His-tagged human CDK9 and CycT1; His; purchased Invitrogen PV4131; host or cells: insect cells
Kind of assay: CDK9/CycT1 high ATP kinase assay (Method 1b). In kind it is biochemical. The following applies: 2 mM ATP. As to the method:
1b. CDK9/CycT1 High ATP Kinase Assay
CDK9/CycT1-inhibitory activity of compounds of the present invention at a high ATP concentration after preincubation of enzyme and test compounds was quantified employing the CDK9/CycT1 TR-FRET assay as described in the following paragraphs.
Recombinant full-length His-tagged human CDK9 and CycT1, expressed in insect cells and purified by Ni-NTA affinity chromatography, were purchase from Invitrogen (Cat. No PV4131). As substrate for the kinase reaction biotinylated peptide biotin-Ttds-YISPLKSPYKISEG (C-terminus in amid form) was used which can be purchased e.g. form the company JERINI peptide technologies (Berlin, Germany).
For the assay 50 nl of a 100 fold concentrated solution of the test compound in DMSO was pipetted into a black low volume 384 well microtiter plate (Greiner Bio-One, Frickenhausen, Germany), 2 μl of a solution of CDK9/CycT1 in aqueous assay buffer [50 mM Tris/HCl pH 8.0, 10 mM MgCl2, 1.0 mM dithiothreitol, 0.1 mM sodium ortho-vanadate, 0.01% (v/v) Nonidet-P40 (Sigma)] were added and the mixture was incubated for 15 min at 22° C. to allow pre-binding of the test compounds to the enzyme before the start of the kinase reaction. Then the kinase reaction was started by the addition of 3 μl of a solution of adenosine-tri-phosphate (ATP, 3.3 mM=>final conc. in the 5 μl assay volume is 2 mM) and substrate (1.67 μM=>final conc. in the 5 μl assay volume is 1 μM) in assay buffer and the resulting mixture was incubated for a reaction time of 25 min at 22° C. The concentration of CDK9/CycT1 was adjusted depending of the activity of the enzyme lot and was chosen appropriate to have the assay in the linear range, typical concentrations were in the range of 0.5 μg/ml. The reaction was stopped by the addition of 5 μl of a solution of TR-FRET detection reagents (0.2 μM streptavidine-XL665 [Cisbio Bioassays, Codolet, France] and 1 nM anti-RB(pSer807/pSer811)-antibody from BD Pharmingen [#558389] and 1.2 nM LANCE EU-W1024 labeled anti-mouse IgG antibody [Perkin-Elmer, product no. AD0077]) in an aqueous EDTA-solution (100 mM EDTA, 0.2% (w/v) bovine serum albumin in 100 mM HEPES/NaOH pH 7.0).
The resulting mixture was incubated 1 h at 22° C. to allow the formation of complex between the phosphorylated biotinylated peptide and the detection reagents. Subsequently the amount of phosphorylated substrate was evaluated by measurement of the resonance energy transfer from the Eu-chelate to the streptavidine-XL. Therefore, the fluorescence emissions at 620 nm and 665 nm after excitation at 350 nm was measured in a HTRF reader, e.g. a Rubystar (BMG Labtechnologies, Offenburg, Germany) or a Viewlux (Perkin-Elmer). The ratio of the emissions at 665 nm and at […] was taken as the measure for the amount of phosphorylated substrate. The data were normalised (enzyme reaction without inhibitor=0% inhibition, all other assay components but no enzyme=100% inhibition).

For the next assay, the system named is HeLa cells. The assay can be described thus: Proliferation assay, HeLa (Method 3). In kind it is cell-based, human. Conditions: Homo sapiens, HeLa, 96 h, 4 days, crystal violet; read-out: Inhibition of HeLa cell proliferation IC50. How it is done:
Cultivated tumour cells (HeLa, human cervical tumour cells, ATCC CCL-2; NCI-H460, human non-small cell lung carcinoma cells, ATCC HTB-177; A2780, human ovarian carcinoma cells, ECACC #93112519; DU 145, hormone-independent human prostate carcinoma cells, ATCC HTB-81; HeLa-MaTu-ADR, multidrug-resistant human cervical carcinoma cells, EPO-GmbH Berlin; Caco-2, human colorectal carcinoma cells, ATCC HTB-37; B16F10, mouse melanoma cells, ATCC CRL-6475) were plated at a density of 5,000 cells/well (DU145, HeLa-MaTu-ADR), 3,000 cells/well (NCI-H460, HeLa), 2,500 cells/well (A2780), 1,500 cells/well (Caco-2), or 1,000 cells/well (B16F10) in a 96-well multititer plate in 200 μL of their respective growth medium supplemented 10% fetal calf serum. After 24 hours, the cells of one plate (zero-point plate) were stained with crystal violet (see below), while the medium of the other plates was replaced by fresh culture medium (200 μl), to which the test substances were added in various concentrations (0 μM, as well as in the range of 0.001-10 μM; the final concentration of the solvent dimethyl sulfoxide was 0.5%). The cells were incubated for 4 days in the presence of test substances. Cell proliferation was determined by staining the cells with crystal violet: the cells were fixed by adding 20 μl/measuring point of an 11% glutaric aldehyde solution for 15 minutes at room temperature. After three washing cycles of the fixed cells with water, the plates were dried at room temperature. The cells were stained by adding 100 μl/measuring point of a 0.1% crystal violet solution (pH 3.0). After three washing cycles of the stained cells with water, the plates were dried at room temperature. The dye was dissolved by adding 100 μl/measuring point of a 10% acetic acid solution. The extinction was determined by photometry at a wavelength of 595 nm. The change of cell number, in percent, was calculated by normalization of the measured values to the extinction values of the zero-point plate (=0%) and the extinction of the untreated (0 μm) cells (=100%). The IC50 values (inhibitory concentration at 50% of maximal effect) were determined by means of a 4 parameter fit.

pIC50: −log10 of the molar value.

T1 sequence (P50750 whole entry): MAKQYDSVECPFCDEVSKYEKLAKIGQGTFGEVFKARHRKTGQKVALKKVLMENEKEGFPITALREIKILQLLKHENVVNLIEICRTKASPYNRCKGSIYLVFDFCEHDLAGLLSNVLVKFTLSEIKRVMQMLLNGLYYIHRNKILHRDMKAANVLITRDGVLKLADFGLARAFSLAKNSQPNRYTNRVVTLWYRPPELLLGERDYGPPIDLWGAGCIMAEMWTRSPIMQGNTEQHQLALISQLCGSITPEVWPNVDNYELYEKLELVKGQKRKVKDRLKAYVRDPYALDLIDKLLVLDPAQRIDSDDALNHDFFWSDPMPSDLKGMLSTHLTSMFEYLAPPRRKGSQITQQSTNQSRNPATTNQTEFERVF
T1 sequence (O60563 whole entry partner): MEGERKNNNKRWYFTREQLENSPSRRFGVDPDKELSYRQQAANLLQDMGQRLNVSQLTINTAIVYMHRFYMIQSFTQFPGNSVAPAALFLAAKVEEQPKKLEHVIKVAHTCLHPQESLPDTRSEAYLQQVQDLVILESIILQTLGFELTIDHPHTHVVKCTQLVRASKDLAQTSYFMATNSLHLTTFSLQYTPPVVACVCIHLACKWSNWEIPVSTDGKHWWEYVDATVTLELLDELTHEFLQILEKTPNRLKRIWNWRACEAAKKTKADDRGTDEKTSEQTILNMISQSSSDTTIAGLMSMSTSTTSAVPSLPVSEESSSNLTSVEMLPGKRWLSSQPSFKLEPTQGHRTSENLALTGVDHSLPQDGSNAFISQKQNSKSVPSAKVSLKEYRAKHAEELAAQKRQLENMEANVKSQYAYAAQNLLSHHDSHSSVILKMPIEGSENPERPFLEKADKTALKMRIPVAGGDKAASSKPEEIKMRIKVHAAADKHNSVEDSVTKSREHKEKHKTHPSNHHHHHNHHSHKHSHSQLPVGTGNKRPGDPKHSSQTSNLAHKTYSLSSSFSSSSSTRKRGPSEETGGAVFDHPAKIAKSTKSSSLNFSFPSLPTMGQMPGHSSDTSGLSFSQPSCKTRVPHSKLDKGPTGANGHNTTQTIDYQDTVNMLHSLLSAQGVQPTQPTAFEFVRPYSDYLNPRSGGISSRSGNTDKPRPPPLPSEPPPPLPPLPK

`CCS(=N)(=O)Cc1ccnc(Nc2cc(-c3ccc(F)cc3OC)ncn2)c1` (racemic) [Example 11, (rac)-N-{4-[(S-Ethylsulfonimidoyl)methyl]pyridin-2-yl}-6-(4-fluoro-2-methoxyphenyl)pyrimidin-4-amine]: the figures for the pIC50 on CDK9/CycT1 and in the assay with HeLa cells were 6.71 and 6.47, respectively.
